Source: US20140178432A1, “PRODUCTION OF DENSE BODIES (DB) FROM HCMV-INFECTED CELLS” (priority 2011, published 2014)
“Also recorded” adds a separate entry of the source.

Legend:
Format in all cases: cell-based, human cytomegalovirus (HCMV)
HCMV strain TB40/E = assay: Dense Body (DB) production in HUVEC infected with HCMV strain TB40/E, electron microscopy; details: for virions in the cytoplasm of the treated batch / concentration of DB in the cytoplasm of the infected cells (electron microscope): HUVEC infected with HCMV TB40/E, A: 300 nmol/l, B: 300 nmol/l, C: 3 μmol/l; for concentration of DB in the cytoplasm of the infected cells (electron microscope): control only a few DB; for concentration that led to optimal results (DB production): HUVEC infected with HCMV strain TB40/E
Procedure: (§1) Human foreskin fibroblasts (“human foreskin fibroblasts, HFF”) were added in an amount of 1×10^6 cells per flask in 5 T75-cell culture flasks on the day before the infection. The HCMV strain AD 169 was prepared as a frozen, cell-free virus preparation that was obtained from cells that were present in a late stage of infection. The substances (A), (B), (C), and (D) according to the invention were provided as stock solutions of 50 mmol/l each in DMSO.
(§2) The HFF cells were incubated for one hour with the virus preparation at a m.o.i. (“multiplicity of infection”) of ≧≧1 TCID 50/cell (1:20 dilution). Then, the virus supernatant was removed, and an incubation of the infected cells was carried out with the substances according to the invention at the following concentrations: A: 50 nmol/l; B: 5 nmol/l; C: 500 nmol/l; D: 500 nmol/l.
(§3) The cells were incubated for 5 days, whereby a renewal of the substance-containing medium was performed after the first and fourth days. After the incubation, the infected cells were examined by electron microscope in the formation of DB.
In another experiment, human endothelial cells from the umbilical vein (HUVEC) were infected with the HCMV strain TB40/E, which was isolated from cells in a late stage of infection. The experimental design corresponds to the one shown under 2.1, whereby the incubation of cells was carried out at the following concentrations of the substances according to the invention: A: 300 nmol/l; B: 300 nmol/l: C: 3 μmol/l; D: […].

clinical HCMV isolate = assay: Dense Body (DB) production in HFF infected with a clinical HCMV isolate, co-cultured with non-infected HFF, electron microscopy; details: HFF infected with a clinical isolate of HCMV, co-culture with non-infected HFF
Procedure: HFF were infected with a clinical HCMV isolate, which was isolated from cells in a late stage of infection, as further described above under 2.1. The infected HFF were co-cultivated with non-infected HFF in mini-trays (3,000 cells/recess). Three different ratios of infected/non-infected cells were produced: undiluted; 1:2 diluted; 1:4 diluted. The substances according to the invention were incubated with the cells at the following concentrations: A: 300 nmol/l; B: 300 nmol/l; C: 3 μmol/l; D: 30 μmol/l.
After 5 days of incubation at 37° C., the electron-microscopic study was carried out. […] The greater the dilution with non-infected cells, the fewer DB accumulated in the cytoplasm. In the control batch without a substance according to the invention, only very few DB could be identified. Moreover, the ejection of infectious particles from the cell nucleus was prevented in turn by the addition of the substances according to the invention.

HCMV strain AD169 = assay: Dense Body (DB) production in human foreskin fibroblasts infected with HCMV strain AD169, electron microscopy; details: for infectious virus particles in the cytoplasm of treated cells / accumulation of DB in the cytoplasm (electron microscope): HFF infected with HCMV AD169, 5 days incubation, A: 50 nmol/l, B: 5 nmol/l, C: 500 nmol/l, D: 500 nmol/l; for infectious virus particles in the cytoplasm of treated cells: untreated cells relatively large numbers; for accumulation of DB in the cytoplasm (electron microscope): untreated cells virtually no DB; for concentration that led to optimal results (DB production): HFF infected with HCMV strain AD169
Procedure: as §1
The stock solutions were diluted 1:1000 to a final concentration of 50 μmol/l. The solutions were further diluted as follows: A: 1:1000 (50 nmol/l) 12 μml in 12 ml of MEM; B: 1:10,000 (5 nmol/l) 1.2 μml in 12 ml of MEM; C: 1:100 (500 nmol/l) 120 μml in 12 ml of MEM; D: 1,100 (500 nmol/l) 120 μml in 12 ml of MEM.
as §2, §3

Q: What does the source list for `COc1cccc(N2CCN(C3=Nc4c(F)cccc4[C@H](CC(=O)O)N3c3cc(C(F)(F)F)ccc3OC)CC2)c1` [substance (A), (4S)-{8-fluoro-2-[4-(3-methoxyphenyl)-1-piperazinyl]-3-[2-methoxy-5-(trifluoromethyl)-phenyl]-3,4-dihydro-4-quinazolinyl}acetic acid]?
A: virions in the cytoplasm of the treated batch (HCMV strain TB40/E): no virions could be detected; concentration of DB in the cytoplasm of the infected cells (electron microscope) (HCMV strain TB40/E): strong concentration of DB; concentration that led to optimal results (DB production) (HCMV strain TB40/E): 300 nmol/L; concentration that led to good results (DB production) (clinical HCMV isolate): 300 nmol/L; infectious virus particles in the cytoplasm of treated cells (HCMV strain AD169): no single infectious virus particle was to be found; accumulation of DB in the cytoplasm (electron microscope) (HCMV strain AD169): large amounts of DB; also recorded: high concentrations of DB; concentration that led to optimal results (DB production) (HCMV strain AD169): 50 nmol/L

Q: Which “virions in the cytoplasm of the treated batch” value (HCMV strain TB40/E) does the source give for `Cc1ccc(N2CCN(C(=O)c3nc(NC(=O)Nc4ccc(OC(F)(F)F)cc4)cn3C)CC2)nc1` [substance (B), N-{1-methyl-2-[(4-(5-methyl-pyridin-2-yl)-piperazin-1-yl)carbonyl]-1H-imidazol-4-yl}-N′-[4-(trifluoromethoxy)phenyl]urea] here?
A: The value was “no virions could be detected”.

Q: What about the “concentration of DB in the cytoplasm of the infected cells (electron microscope)” value (HCMV strain TB40/E) of the same compound?
A: The value was “strong concentration of DB”.

Q: What about the “concentration that led to optimal results (DB production)” value (HCMV strain TB40/E) of the same compound?
A: The value was 300 nmol/L.

Q: And the “concentration that led to good results (DB production)” value (clinical HCMV isolate)?
A: Its value is 300 nmol/L.

Q: And the “infectious virus particles in the cytoplasm of treated cells” value (HCMV strain AD169)?
A: Its value is “no single infectious virus particle was to be found”.

Q: And the “accumulation of DB in the cytoplasm (electron microscope)” value (HCMV strain AD169)?
A: Its value is “large amounts of DB; also recorded: high concentrations of DB”.

Q: What about the “concentration that led to optimal results (DB production)” value (HCMV strain AD169) of the same compound?
A: Its value is 5 nmol/L.

Q: `COc1c(N2CCC(C(=O)O)CC2)c(F)cc2c(=O)c(C(=O)NCc3ccc(OC(F)(F)F)cc3C)cn(CC(F)(F)F)c12` [substance (C), 1-[6-fluoro-8-methoxy-3-({[2-methyl-4-(trifluoromethoxy)benzyl]amino}carbonyl)-4-oxo-1-(2,2,2-trifluoroethyl)-1,4-dihydroquinolin-7-yl]piperidine-4-carboxylic acid] was tested. Which “virions in the cytoplasm of the treated batch” value (HCMV strain TB40/E) did it give?
A: The value was “no virions could be detected”.

Q: What about the “concentration of DB in the cytoplasm of the infected cells (electron microscope)” value (HCMV strain TB40/E) of the same compound?
A: Its value is “strong concentration of DB”.

Q: What about the “concentration that led to optimal results (DB production)” value (HCMV strain TB40/E) of the same compound?
A: The value was 3000 nmol/L.

Q: What about the “concentration that led to good results (DB production)” value (clinical HCMV isolate) of the same compound?
A: Its value is 3000 nmol/L.

Q: What about the “infectious virus particles in the cytoplasm of treated cells” value (HCMV strain AD169) of the same compound?
A: Its value is “no single infectious virus particle was to be found”.

Q: And the “accumulation of DB in the cytoplasm (electron microscope)” value (HCMV strain AD169)?
A: The value was “large amounts of DB; also recorded: high concentrations of DB”.

Q: And the “concentration that led to optimal results (DB production)” value (HCMV strain AD169)?
A: Its value is 500 nmol/L.

Q: Which results are given for `N#CC1(C(=O)Nc2cc(F)cc(NS(=O)(=O)c3ccc(-c4noc(-c5cccc(N)n5)n4)cc3)c2)CC1` [substance (D), N-{3-[({4-[5-(6-aminopyridin-2yl)-1,2,4-oxadiazol-3-yl]phenyl}sulfonyl)amino]-5-fluorophenyl}-1-cyanocyclopropane carboxamide]?
A: virions in the cytoplasm of the treated batch (HCMV strain TB40/E): no virions could be detected; concentration of DB in the cytoplasm of the infected cells (electron microscope) (HCMV strain TB40/E): strong concentration of DB; concentration that led to optimal results (DB production) (HCMV strain TB40/E): 30000 nmol/L; concentration that led to good results (DB production) (clinical HCMV isolate): 30000 nmol/L; infectious virus particles in the cytoplasm of treated cells (HCMV strain AD169): no single infectious virus particle was to be found; accumulation of DB in the cytoplasm (electron microscope) (HCMV strain AD169): large amounts of DB; also recorded: high concentrations of DB; concentration that led to optimal results (DB production) (HCMV strain AD169): 500 nmol/L
